Test results taken from patent publication US5852011A, “Benzimidazole derivatives” (Mitsui Chemicals, Inc., priority 1994, dated 1998).
Counter-ions that a name gives are not always drawn.

Key:
[1] = tested on: Colon 26 mouse colon cancer cells; experiment: In vivo antitumor activity, Colon 26 subcutaneously transplanted to female CDF1 mice (Test 4); settings: 20 mg/Kg, caudal vein; tumor weight on day 15
Experimental: Prepared was a 1×10^7 cells/ml suspension of Colon 26 mouse colon cancer cells in HBSS (Hanks' Balanced Salt Solution). A 0.1 ml portion of the cell suspension was subcutaneously transplanted to a lateroabdominal part of each female CDF1 mouse. After the body weight of the mouse was measured on the following day of the transplantation of the tumor, a solution of a compound (5% glucose solution containing 5% of "Tween 80") was administered into the caudal vein of the mouse. On day 15, a tumor was excised and its weight was measured.
The percentage of the average tumor weight of each experiment group as calculated by supposing that the average tumor weight of the control group not administered with any drug was 100% was calculated as a T/C value.
Corresponding to each compound number, its T/C value is shown. The number in parentheses indicates the concentration of the drug when the T/C value was indicated.

P388 leukemia cells = experiment: In vivo antitumor activity, P388 leukemia intraperitoneally transplanted to female CDF1 mice (Test 3); set-up: species or system mouse; ILS: unit not given here; settings: intraperitoneal, one, five and nine days after transplantation; for Survived After 8 weeks/Tested Animals: concentration 3 (in parentheses)
Experimental: In vivo antitumor activities of these compounds were also studied. P388 leukemia cells (10^6 cells/mouse) were intraperitoneally transplanted to female CDF1 mice. One, five and nine days later, each compound was intraperitoneally administered (at 1, 3 or 10 mg/kg) to the mice. As a blank test, 5% glucose was intraperitoneally administered at 10 ml/kg to mice. Based on the group of the mice in the blank test as a control group, the effects of the individual drugs are shown in terms of ILS. The term "ILS" is represented by the following formula: [formula]
When test animals survived 8 weeks after the administration, the number of those survived was recorded without calculation of ILS.

mouse B16 melanoma cells = experiment: In vitro inhibition of proliferation of tumored cells, mouse B16 melanoma (Test 2); assay type: cell-based; settings: 3 days in 5% CO2 at 37° C., 96-well plate
Experimental: A description will next be made of antitumor activities of these compounds. Their antitumor activities were determined by measuring their in vitro inhibition of proliferation of tumored cells. Namely, mouse B16 melanoma cells were spread over a 96-well culture plate. One day later, each drug was applied. The melanoma cells were then incubated for 3 days in 5% CO2 at 37° C. Following the method reported in Cancer Res., 48, 589-601(1988), the concentration of the drug required to induce 50% inhibition on the proliferation was determined. As a comparative example, the results obtained from the application of distamycin are also shown.

SMILES: COc1cccc2c1C(=O)c1c(O)c3c(c(O)c1C2=O)C[C@@](O)(C(=O)CO)C[C@@H]3O[C@H]1C[C@H](N)[C@H](O)[C@H](C)O1 [Adriamycin, adriamycin, reference compound]
- T/C [1]: 40%

SMILES: Cn1cc(NC(=O)Cc2ccc(N(CCCl)CCCl)cc2)cc1-c1nc2cc(C(=O)NCCC(=N)N)ccc2[nH]1 [Compound 2, 1H-2-[4-[2-[4-[N,N-Bis(2-chloroethyl)amino]phenyl]acetylamino]-1-methylpyrrol-2-yl]benzimidazole-5-[N-(2-amidinoethyl)]carboxamide hydrochloride]
- ILS (P388 leukemia cells; 1 mg/kg): 59
- Survived After 8 weeks/Tested Animals (P388 leukemia cells): 2/5
- 50% Inhibition (mouse B16 melanoma cells): 0.25 µg/mL

SMILES: COc1cc(C(=O)Nc2cc(-c3nc4cc(C(=O)NCCC(=N)N)ccc4[nH]3)n(C)c2)ccc1N(CCCl)CCCl [Compound 6, 1H-2-[4-[3-Methoxy-4-[N,N-bis(2-chloroethyl)amino]benzoylamino]-1-methylpyrrol-2-yl]benzimidazole-5-[N-(2-amidinoethyl)]carboxamide hydrochloride]
- ILS (P388 leukemia cells; 1 mg/kg): 94
- 50% Inhibition (mouse B16 melanoma cells): 0.02 µg/mL

SMILES: Cn1cc(NC(=O)COc2ccc(N(CCCl)CCCl)cc2)cc1-c1nc2cc(C(=O)NCCC(=N)N)ccc2[nH]1 [Compound 13, 1H-2-[4-[4-[N,N-Bis(2-chloroethyl)amino]phenoxyacetylamino]-1-methylpyrrol-2-yl]benzimidazole-5-[N-(2-amidinoethyl)]carboxamide hydrochloride]
- ILS (P388 leukemia cells; 1 mg/kg): 123
- Survived After 8 weeks/Tested Animals (P388 leukemia cells): 3/5
- 50% Inhibition (mouse B16 melanoma cells): 0.01 µg/mL

SMILES: Cn1cc(NC(=O)c2ccccc2N(CCCl)CCCl)cc1-c1nc2cc(C(=O)NCCC(=N)N)ccc2[nH]1 [Compound 305, 1H-2-[4-[2-[N,N-Bis(2-chloroethyl)amino]benzoylamino]-1-methylpyrrol-2-yl)benzimidazole-5-[N-(2-amidinoethyl)]carboxamide hydrochloride]
- ILS (P388 leukemia cells; 10 mg/kg): 22
- 50% Inhibition (mouse B16 melanoma cells): 4.2 µg/mL

SMILES: Cn1cc(NC(=O)c2cc(N(CCCl)CCCl)cc(N(CCCl)CCCl)c2)cc1-c1nc2cc(C(=O)NCCC(=N)N)ccc2[nH]1 [Compound 310, 1H-2-[4-[3,5-Bis[N,N-bis(2-chloroethyl)amino]benzoylamino]-1-methylpyrrol-2-yl]benzimidazole-5-[N-(2-amidinoethyl)]carboxamide hydrochloride]
- ILS (P388 leukemia cells; 1 mg/kg): 88
- 50% Inhibition (mouse B16 melanoma cells): 0.76 µg/mL

SMILES: Cn1cc(NC(=O)CC[S+](C)C)cc1-c1nc2cc(C(=O)Nc3ccc(N(CCCl)CCCl)c(C(F)(F)F)c3)ccc2[nH]1 [Compound 1077, 2-[N-[1-Methyl-2-[5-[N-[3-trifluoromethyl-4-[N,N-bis(2-chloroethyl)amino]phenyl]]carbamoyl]-1H-benzimidazol-2-yl]pyrrol-4-yl]carbamoylethyl-dimethylsulfonium chloride]
- 50% Inhibition (mouse B16 melanoma cells): 0.29 µg/mL

SMILES: Cc1cc(NC(=O)c2ccc3[nH]c(-c4cc(NC(=O)CCCN(C)C)cn4C)nc3c2)ccc1N(CCCl)CCCl [Compound 1260, 1H-2-[1-Methyl-4-[4-(N,N-dimethylamino)butyrylamino]pyrrol-2-yl]benzimidazole-5-[N-[3-methyl-4-[N,N-bis(2-chloroethyl)amino]phenyl]]carboxamide dihydrochloride]
- 50% Inhibition (mouse B16 melanoma cells): 3.1 µg/mL

SMILES: Cn1cc(NC(=O)c2ccc[nH]2)cc1-c1nc2cc(C(=O)Nc3ccc(N(CCCl)CCCl)cc3)ccc2[nH]1 [Compound 1480, 1H-2-[1-Methyl-4-(2-pyrrolcarboxamido)pyrrol-2-yl]benzimidazole-5-[N-[4-[N,N-bis(2-chloroethyl)amino]phenyl]]carboxamide hydrochloride]
- 50% Inhibition (mouse B16 melanoma cells): 0.16 µg/mL

SMILES: Cn1cc(NC(=O)CCCN)cc1-c1nc2cc(C(=O)Nc3ccc(N(CCCl)CCCl)cc3)ccc2[nH]1 [Compound 1488, 1H-2-[4-(4-aminobuturylamino)-1-methylpyrrol-2-yl]benzimidazole-5-[N-[4-[N,N-bis(2-chloroethyl)amino]phenyl]]carboxamide]
- 50% Inhibition (mouse B16 melanoma cells): 2.85 µg/mL

SMILES: CSCCC(=O)Nc1cc(-c2nc3cc(C(=O)Nc4ccc(N(CCCl)CCCl)cc4)ccc3[nH]2)n(C)c1 [Compound 1520, 1H-2-[1-Methyl-4-[3-(methylthio)propionylamino]pyrrol-2-yl]benzimidazole-5-[N-[4-[N,N-bis(2-chloroethyl)amino]phenyl]]carboxamide]
- 50% Inhibition (mouse B16 melanoma cells): 0.33 µg/mL

SMILES: CSCCC(=O)Nc1cc(-c2nc3cc(C(=O)Nc4ccc(N(CCCl)CCCl)c(C)c4)ccc3[nH]2)n(C)c1 [Compound 1524, 1H-2-[1-Methyl-4-[3-(methylthio)propionylamino]pyrrol-2-yl]benzimidazole-5-[N-[3-methyl-4-[N,N-bis(2-chloroethyl)amino]phenyl]]carboxamide]
- 50% Inhibition (mouse B16 melanoma cells): 0.6 µg/mL

SMILES: CSCCC(=O)Nc1cc(-c2nc3cc(C(=O)Nc4ccc(N(CCCl)CCCl)c(F)c4)ccc3[nH]2)n(C)c1 [Compound 1528, 1H-2-[1-Methyl-4-[3-(methylthio)propionylamino]pyrrol-2-yl]benzimidazole-5-[N-[3-fluoro-4-[N,N-bis(2-chloroethyl)amino]phenyl]]carboxamide]
- 50% Inhibition (mouse B16 melanoma cells): 0.22 µg/mL

SMILES: Cn1cc(NC(=O)N2CCOCC2)cc1-c1nc2cc(C(=O)Nc3ccc(N(CCCl)CCCl)cc3)ccc2[nH]1 [Compound 1536, 1H-2-[1-Methyl-4-(4-morpholinecarbonyl)aminopyrrol-2-yl]benzimidazole-5-[N-[4-[N,N-bis(2-chloroethyl)amino]phenyl]]carboxamide]
- 50% Inhibition (mouse B16 melanoma cells): 0.53 µg/mL

SMILES: Cn1cc(NC(=O)CN2CCN(Cc3ccccc3)CC2)cc1-c1nc2cc(C(=O)Nc3ccc(N(CCCl)CCCl)cc3)ccc2[nH]1 [Compound 1585, 1H-2-[1-Methyl-4-[(4-benzylpiperazinyl)acetylamino]pyrrol-2-yl]benzimidazole-5-[N-[4-[N,N-bis(2-chloroethyl)amino]phenyl]]carboxamide]
- 50% Inhibition (mouse B16 melanoma cells): 0.1 µg/mL

SMILES: Cn1cc(NC(=O)CCn2ccnc2)cc1-c1nc2cc(C(=O)Nc3ccc(N(CCCl)CCCl)cc3)ccc2[nH]1 [Compound 1589, 1H-2-[1-Methyl-4-[[3-(imidazol-1-yl)propionyl]amino]pyrrol-2-yl]benzimidazole-5-[N-[4-[N,N-bis(2-chloroethyl)]amino]phenyl]carboxamide]
- 50% Inhibition (mouse B16 melanoma cells): 0.41 µg/mL

SMILES: Cn1cc(NC(=O)c2ncc[nH]2)cc1-c1nc2cc(C(=O)Nc3ccc(N(CCCl)CCCl)cc3)ccc2[nH]1 [Compound 1590, 1H-2-[1-Methyl-4-[2-imidazolylcarboxamido)-pyrrol-2-yl]benzimidazole-5-[N-[4-[N,N-bis(2-chloroethyl)amino]phenyl]]carboxamide]
- 50% Inhibition (mouse B16 melanoma cells): 0.53 µg/mL

SMILES: Cn1cc(NC(=O)CNC(=N)N)cc1-c1nc2cc(C(=O)NCCCC(=O)Nc3ccc(N(CCCl)CCCl)cc3)ccc2[nH]1 [Compound 1592, 1H-2-[4-(Guanidinoacetyl)amino-1-methylpyrrol-2-yl]benzimidazole-5-[N-[3-[N-[4-[N,N-bis(2-chloroethyl)amino]phenyl]carboxamido]propyl]]carboxamide hydrochloride]
- 50% Inhibition (mouse B16 melanoma cells): 0.61 µg/mL

SMILES: N=C(N)NCC(=O)Nc1cc(-c2nc3cc(C(=O)Nc4ccc(N(CCCl)CCCl)cc4)ccc3[nH]2)cs1 [Compound 1617, 1H-2-[5-(Guanidinoacetyl)aminothiophen-3-yl]benzimidazole-5-[N-[4-[N,N-bis(2-chloroethyl)amino]phenyl]]carboxamide dihydrochloride]
- 50% Inhibition (mouse B16 melanoma cells): 0.12 µg/mL

SMILES: Cn1cc(NC(=O)c2ccc(N(CCCl)CCCl)cc2)cc1-c1nc2cc(C(=O)Nc3ccc(N(CCCl)CCCl)cc3)ccc2[nH]1 [Compound 2001, 1H-2-[4-[4-[N,N-Bis(2-chloroethyl)amino]benzoylamino]-1-methylpyrrol-2-yl]benzimidazole-5-[N-[4-[N,N-bis(2-chloroethyl)amino]phenyl]]carboxamide]
- ILS (P388 leukemia cells; 10 mg/kg): 47
- 50% Inhibition (mouse B16 melanoma cells): 0.005 µg/mL

SMILES: CCN(CCCl)c1ccc(NC(=O)c2ccc3[nH]c(-c4cc(NC(=O)c5ccc(N(CC)CCCl)cc5)cn4C)nc3c2)cc1.Cl [Compound 2089, 1H-2-[1-Methyl-4-[4-[N-ethyl,N-(2-chloroethyl)amino]benzoylamino]pyrrol-2-yl]benzimidazole-5-[N-[4-[N-ethyl,N-(2-chloroethyl)amino]phenyl]]carboxamidehydrochloride]
- 50% Inhibition (mouse B16 melanoma cells): 0.0057 µg/mL
